melting point [°C] | SMILES
150 to 152 | Nc1sc2c(c1C(=O)c1ccc(Cl)cc1)CCN(CCc1ccc([N+](=O)[O-])cc1)C2
141 to 142 | OC(CCl)CNc1nc2ccnc(-c3cccc(C(F)(F)F)c3)n2n1 (centres undefined)
> 250 | Cc1ccc(-c2[nH]c(-c3ccc4ccccc4c3)nc2C(=O)Nc2nccs2)cc1
165 to 167 | COc1cc(OC)c2c(=O)cc(-c3ccccc3Cl)oc2c1C1CCN(C)C1C(=O)O (centres undefined)
115 to 119 | O=C(O)C(Sc1ccccc1)c1cc(Cl)cc(Cl)c1 (centres undefined)
124 to 126 | COc1cc(C=CC(=O)C=Cc2cc(OC)cc(OC)c2)cc(OC)c1
223 to 225 | CCn1nc2c(N)nc3ccccc3c2c1CC(C)(C)O
218 to 220 | O=C(Nc1ccc(C(=O)O)cc1)OCc1cn(-c2cc3cc(C(=O)O)c(=O)[nH]c3cc2C(F)(F)F)cn1
180 | O=C1c2cccc3cc4ccccc4c(c23)C(=O)N1CCCNCCNCCCN1C(=O)c2cccc3cc4ccccc4c(c23)C1=O
210 to 212 | Nc1ccccc1Oc1cccc2c1NC(=O)C2
100 to 103 | O=C(Nc1cccc(-n2ccnc2)c1)c1ccn(-c2ccccc2)c1
266 to 267 | O=C(CC(NC(=O)c1ccccc1)c1ccccc1)Nc1n[nH]c(=S)s1 (centres undefined)
241 to 246 | O=C(O)c1cc(=O)cc(-c2ccccc2Cl)o1
162 to 164 | CSC(=N)N(C#N)C(c1ccccn1)c1ccccc1C (centres undefined)
188 | CS(=O)(=O)C(=C1CN(C(c2ccccc2)c2ccccc2)C1)c1ccccc1F
112 to 113 | O=Cc1cccc2c1OC(c1ccccc1)CC2=O (centres undefined)
137 to 140 | CN1CCC(C(C(=O)N2CCCC2)(c2ccccc2)c2ccccc2)C1 (centres undefined)
170 to 172 | CCCCc1nc(Cl)c(CC(=O)O)n1Cc1ccc(OCc2ccccc2C(=O)O)cc1
104 to 107 | CC1=C(C(=O)OC2CN(C(c3ccccc3)c3ccccc3)C2)C(c2cccc([N+](=O)[O-])c2)C(C(=O)OC(C)C)=C(N)N1 (centres undefined)
288 to 290 | Oc1ccc2cc(-c3nc4ccc(O)cc4o3)ccc2c1
100 to 102 | CCn1cc(C(=O)NCc2ccc(Cl)cc2)c(=O)c2cc(CN(C)C[C@@H](O)c3ccccc3)sc21

More lines, now with the values behind:

SMILES | melting point [°C]
COc1ccc(N2CCN(c3c(C)c(C)c4c(c3C)C(N3CCCc5ccccc53)C(C)(C)O4)CC2)cc1 (centres undefined) | 188 to 190
COc1c(C)cc([N+](=O)[O-])c(NC(C)C)c1[N+](=O)[O-] | 77.5 to 79
Nc1c(F)cc(Cl)c2c1CCCO2 | 47 to 50
COCC1CN(c2ccc(C3=CCCCC3)cc2)C(=O)O1 (racemic) | 106 to 108
O=C(NC1CCOCC1)NC12CC3CC(CC(C3)C1)C2 | 239 to 242
Cn1cnc2c(=S)[nH]ccc21 | > 300
CSc1sc(C(=O)O)c2c1-c1oc(C)nc1CC2 | > 300
CCCn1c(COCC)nc2c(N)nc3ccc(OCCCCCCNS(C)(=O)=O)cc3c21 | 164 to 167
O=C(c1ccccc1Cl)c1cc(Cl)ccc1-n1ccnc1 | 146 to 148
CCOC(=O)C(C)(C)n1c(=O)[nH]c2c(OC)cccc2c1=O | 144 to 145
COc1ncnc(OC)c1N | 94 to 96
CCc1c(CO)[nH]c(=O)c(I)c1Oc1cc(C)cc(C)c1 | 70
CNc1nc2ccc(C3=NNC(=O)NC3C)cc2s1 (centres undefined) | 290 to 295
Cc1ccc(C2CC(=O)OC(=O)C2)cc1 | 160 to 162
Cc1ccc2c(c1C)C(=O)C(=O)N2 | 225 to 226
CCOC(=O)c1cn(C2CC2)c2nc(N3C[C@@H](CNC(C)=O)[C@H](F)C3)c(F)cc2c1=O (relative stereo) | 211 to 213
CCNc1nc(-c2ccc(F)cc2C)c2ccc(=O)n(-c3c(F)cccc3F)c2n1 | 195 to 196
CC(C)c1c(Br)c(Br)c(-c2ccc(F)cc2)n1CC[C@H]1C[C@H](O)CC(=O)O1 (relative stereo) | 143

Reference: a melting point compilation (Tetko et al.; mined from patent text by program, amines drawn as free bases though some values may be those of a salt)
